Assay results reported in article PMC11178787, “Development of a natural product optimization strategy for inhibitors against MraY, a promising antibacterial target” (Nature Communications, 2024).
Converted amounts (≈) assume the structure as drawn. Read-outs that look alike come from different tables or passages of the source.

Experiments:
Assay in all cases: microbe, parasite or virus in culture
[1] = test system: T1, Enterococcus faecium 11; parameters: CLSI broth microdilution MIC in MHB-II; conditions: Enterococcus faecium, 11, 18 h, read-out: MIC
T1 construct: 11
How it was run: (§1)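 CLSI microdilution, MHB-II, 5 × 10^5 cfu/mL, 37 °C/18 h; 2-fold compound series, <1% DMSO final. MIC = highest of 3 trials (single trial for some).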

[2] = test system: T2, Enterococcus faecalis 30; parameters: CLSI broth microdilution MIC in MHB-II; conditions: Enterococcus faecalis, 30, 18 h, read-out: MIC
T2 construct: 30
How it was run: as §1

[3] = test system: T3, Enterococcus faecalis 24; parameters: CLSI broth microdilution MIC in MHB-II; conditions: Enterococcus faecalis, 24, 18 h, read-out: MIC
T3 construct: 24
How it was run: as §1

[4] = test system: T4, Enterococcus faecium 10; parameters: CLSI broth microdilution MIC in MHB-II; conditions: Enterococcus faecium, 10, 18 h, read-out: MIC
T4 construct: 10
How it was run: as §1

[5] = test system: T5, E. faecium(VRE) ATCC 51858; parameters: CLSI broth microdilution MIC in MHB-II, single trial; conditions: Enterococcus faecium, 18 h
T5 construct: ATCC 51858 (VRE)
Experimental: (§2) MICs were determined by a microdilution broth method as recommended by the CLSI with MHB-II. For MICs of stable analogues, a 2-fold dilution of each compound was prepared in DMSO at 100-fold of the final concentration. The strains were inoculated with 5 × 10^5 cfu/mL in 96-well plates (each 100 μL/well), and 1 μL of DMSO solutions of the samples were added (contained less than 1% DMSO). The plates were incubated at 37 °C for 18 h and then MICs were determined. MICs of stable analogues in Table 1 were the highest value in three trials. MICs in Supplementary Table 1 were determined in one trial.

[6] = test system: T6, E. faecalis(VRE) ATCC 51299; parameters: CLSI broth microdilution MIC in MHB-II, single trial; conditions: Enterococcus faecalis, 18 h
T6 construct: ATCC 51299 (VRE)
Experimental: as §2

[7] = test system: T7, E. faecium ATCC 35667; parameters: CLSI broth microdilution MIC in MHB-II, single trial; conditions: Enterococcus faecium, ATCC35667, 18 h
T7 construct: ATCC 35667
Experimental: as §2

[8] = test system: T8, E. faecium(VRE) ATCC 51559; parameters: CLSI broth microdilution MIC in MHB-II, single trial; conditions: Enterococcus faecium, 18 h
T8 construct: ATCC 51559 (VRE)
Experimental: as §2

[9] = test system: T9, S. aureus ATCC 29213; parameters: CLSI broth microdilution MIC in MHB-II, single trial; conditions: Staphylococcus aureus, ATCC29213, 18 h
T9 construct: ATCC 29213
Experimental: as §2

[10] = test system: T10, Staphylococcus aureus MRSA JE2; parameters: CLSI broth microdilution MIC in MHB-II, single trial; conditions: 18 h
T10 construct: JE2 (MRSA)
Experimental: as §2

[11] = test system: T11, A. baumannii ATCC 19606; conditions: Acinetobacter baumannii, ATCC19606
T11 construct: ATCC 19606
Experimental: (§3) MICs were determined by a microdilution broth method as recommended by the CLSI with MHB-II. For MICs of stable analogues, a 2-fold dilution of each compound was prepared in DMSO at 100-fold of the final concentration. The strains were inoculated with 5 × 10^5 cfu/mL in 96-well plates (each 100 μL/well), and 1 μL of DMSO solutions of the samples were added (contained less than 1% DMSO). The plates were incubated at 37 °C for 18 h and then MICs were determined. MICs of stable analogues in Table 1 were the highest value in three trials. MICs in Supplementary Table 1 were determined in one trial.  Fig. 2 Results of biological evaluations of hydrazone library. a General structures of hydrazine fragment moiety are shown. Each hydrazine class are represented by different colours (green; BZ, cyan; PA, grey; AC, yellow; AA, orange; LA). b–h MraY inhibitory activity and antibacterial activity of the hydrazone library. The bar graphs show the relative enzyme activity with DMSO as 100% when the compound is treated at given concentration (b,c; TUN at 100 nM, d,e; MRY at 10 nM, f.g; MRD at 100 nM, h; CAP at 1000 nM. n = 1), with the lower bars indicating higher inhibitory activity. The colour of the bars corresponds to Fig. 2a. […] Data of control compounds (van: vancomycin, col: colistin) are shown left column in each panel. E. faecium ATCC 35667, S. aureus ATCC 29213, P. aeruginosa ATCC 27853, K. pneumoniae ATCC 13883, E. cloacae ATCC 13047, A. baumannii ATCC 19606, E. coli ATCC 25922.

[12] = test system: T12, E. cloacae ATCC 13047; conditions: Enterobacter cloacae, ATCC13047
T12 construct: ATCC 13047
Experimental: as §3

[13] = test system: T13, K. pneumoniae ATCC 13883; conditions: Klebsiella pneumoniae, ATCC13883
T13 construct: ATCC 13883
Experimental: as §3

[14] = test system: T14, P. aeruginosa ATCC 27853; conditions: Pseudomonas aeruginosa, ATCC27853
T14 construct: ATCC 27853
Experimental: as §3

[15] = test system: T9, S. aureus ATCC 29213; conditions: Staphylococcus aureus, ATCC29213
Experimental: as §3

Row | Structure (SMILES) | MIC [1] [µg/mL] | MIC [2] [µg/mL] | MIC [3] [µg/mL] | MIC [4] [µg/mL] | MIC [11] [µM] | MIC [12] [µM] | MIC [13] [µM] | MIC [14] [µM] | MIC [15] [µM] | other results
1 | CN[C@H](CC(C)C)C(=O)N[C@H]1C(=O)N[C@@H](CC(N)=O)C(=O)N[C@H]2C(=O)N[C@H]3C(=O)N[C@H](C(=O)N[C@H](C(=O)O)c4cc(O)cc(O)c4-c4cc3ccc4O)[C@H](O)c3ccc(c(Cl)c3)Oc3cc2cc(c3O[C@@H]2O[C@H](CO)[C@@H](O)[C@H](O)[C@H]2O[C@H]2C[C@](C)(N)[C@H](O)[C@H](C)O2)Oc2ccc(cc2Cl)[C@H]1O [vancomycin] | 1 (≈ 0.69 µM) | 1 (≈ 0.69 µM) | 1 (≈ 0.69 µM) | 1 (≈ 0.69 µM) | 50 (≈ 72.5 µg/mL) | > 50 | > 50 | > 50 | < 0.5 | MIC ([5]; read-out: vancomycin MIC): 128 µg/mL (≈ 88.3 µM); MIC ([6]; read-out: vancomycin MIC): 128 µg/mL (≈ 88.3 µM); MIC ([7]; read-out: vancomycin MIC): 1 µg/mL (≈ 0.69 µM); MIC ([8]; read-out: vancomycin MIC): > 128 µg/mL; MIC ([9]; read-out: vancomycin MIC): 1 µg/mL (≈ 0.69 µM); MIC ([10]; read-out: vancomycin MIC): 1 µg/mL (≈ 0.69 µM)
2 | CC1(C)S[C@@H]2[C@H](NC(=O)[C@H](N)c3ccccc3)C(=O)N2[C@H]1C(=O)O [ampicillin] | 128 (≈ 366 µM) | 0.5 (≈ 1.43 µM) | 0.5 (≈ 1.43 µM) | > 128 | 50 (≈ 17.5 µg/mL) | > 50 | > 50 | > 50 | 5 (≈ 1.75 µg/mL) | MIC ([5]; read-out: ampicillin MIC): 128 µg/mL (≈ 366 µM); MIC ([6]; read-out: ampicillin MIC): 1 µg/mL (≈ 2.86 µM); MIC ([7]; read-out: ampicillin MIC): 1 µg/mL (≈ 2.86 µM); MIC ([8]; read-out: ampicillin MIC): 128 µg/mL (≈ 366 µM); MIC ([9]; read-out: ampicillin MIC): 1 µg/mL (≈ 2.86 µM); MIC ([10]; read-out: ampicillin MIC): 4 µg/mL (≈ 11.4 µM)
